A value given as a limit tells only on which side of the number the result lay.

The compound `Oc1ccc2nc(-c3ccccc3)cc(Cl)c2c1` displayed a melting point of 180 to 181 °C.

`O=C(O)COc1cccnc1Br`: the melting point fell in the range of 172 to 174 °C.

The compound `O=C(NC1c2sc([N+](=O)[O-])cc2OCC1O)c1ccc(C(F)(F)F)cc1` (stereo not given) showed a melting point of 219 to 220 °C.

`N#Cc1cccc(Oc2ccc(CBr)cc2)c1C#N` returned a melting point of 130 to 132 °C.

In turn, `CC(C)(C)OC(=O)c1cc2cc(Cl)ccc2[nH]1` showed a melting point of 140 to 142 °C.

Compound `Cn1ncc(N2CCCCC2)c(-c2ccccc2C=O)c1=O` had a melting point of 134 to 135 °C.

The compound `C=C1CCC2(c3c[nH]cn3)Cc3ccccc3C12` (stereo not given) yielded a melting point of 167 to 174 °C.

`Nc1nc(-c2ccccc2)c2cc(Cl)cc(Cl)c2n1` returned a melting point of 213 °C.

As for `CCn1c(=O)c2c(nc(/C=C/c3ccc(OCCCCBr)cc3)n2C)n(CC)c1=O`, the melting point lay in the range of 175 to 176 °C.

`Cc1cc(-c2ccc3nnn(Cc4ccc5ncccc5c4)c3n2)ccc1C(N)=O` registered a melting point of 235 to 237 °C.

In turn, `CCOC(=O)CCc1cc(CCC(N)=O)cc(Cc2ccc(F)cc2)c1` had a melting point of 69 to 70 °C.

Compound `COc1cc(Nc2nccc(-c3ccc(N(C)CCN(C)C)nc3)n2)cc(OC)c1OC` displayed a melting point of 97 to 98 °C.

On to `C=CCc1c(F)c(F)c(NN)c(F)c1F`, for which the melting point lay in the range of 79 to 81 °C.

`CC(C(=O)c1ccc2[nH]ccc2c1)N1CCC(O)(c2ccccc2)CC1` (stereo not given) registered a melting point of 60 to 70 °C.

With `CCCc1c(O)c(O)c(C(=O)O)c2cc(C)c(C)cc12`, the melting point fell in the range of 170 to 172 °C.

Consider `Brc1ccc(OCc2ccc3ccccc3c2)nc1`, for which the melting point lay in the range of 83 to 85 °C.

With `CCOCc1nc2c(NC(=O)C(C)C)nc3ccccc3c2n1CC(C)(C)NS(C)(=O)=O`, the melting point lay in the range of 67 to 70 °C.

On to `Cc1nc(C)c(Cl)c(NCc2nccc(OCCCCN3CCN(Cc4ccncc4)CC3)c2C)n1`, for which the melting point lay within 157 to 158 °C.

In the case of `CCSc1nc2c(N)nc(-c3ccncc3)nc2[nH]1`, the melting point was in the range of 168 to 170 °C.

On to `NCC(=O)N[C@@H]1CN2C(=O)N(c3cc(Cl)nc(Cl)c3)C(=O)[C@@]2(Cc2ccc(OC(F)(F)F)cc2)C1`, for which the melting point came out at 114 °C.

Consider `CCN(CC)CCN(CC)C(=O)c1ccc(Nc2ccnc3c(C(F)(F)F)cccc23)cc1`, for which the melting point is 151 to 152 °C.

`CC(=O)Cc1ccc(CC2SC(=O)NC2=O)cc1` (stereo not given) showed a melting point of 133 to 135 °C.

`C=C(c1c(C#N)nn(-c2c(Cl)cc(C(F)(F)F)cc2Cl)c1N)C(F)(F)F`: the melting point fell in the range of 147 to 148 °C.

Take `CS(=O)(=O)c1cnc2c(c1)cc(-c1ncco1)n2Cc1ccc(F)cc1`: the melting point fell in the range of 200 to 201 °C.

As for `CC(C)c1ccc(N(CC(=O)N2CCOCC2)C(=O)C2CCCc3ccccc32)cc1` (stereo not given), the melting point stood at 180 °C.

As for `c1ccc2sc(-c3ccnc(Nc4ccc5c(c4)OCCO5)c3)cc2c1`, the melting point was found to be 154 °C.

`CCCN(CCC)C(=O)c1cc(C(=O)O)cc(-c2ncco2)c1`: the melting point was in the range of 131 to 133 °C.

The compound `COc1ccc(OC2COc3ccc(OCc4ccc5ccccc5n4)cc3C2O)cc1` (stereo not given) yielded a melting point of 131 to 132 °C.

Turning to `CCCCCC#CCOc1ccc2ccc(=O)oc2c1`, the melting point lay in the range of 74 to 75 °C.

For the compound `CC(C)(C)OC(=O)N1CCc2c(n(CCOc3ccccc3)c3c(Cl)cc(Cl)cc23)CC1`, the melting point lay within 154 to 155 °C.

Consider `c1ccc2c3c([nH]c2c1)C(c1ccc2c(c1)CCO2)NCC3` (stereo not given), for which the melting point is 98 to 99 °C.

The compound `CCCC(=O)Nc1cccc(-c2cccc(OC)c2)c1` gave a melting point of 90 to 91 °C.

Regarding `CCOC(=O)c1cnc2n(c1=O)CCCC2CC(=O)O` (stereo not given), the melting point lay within 156 to 157 °C.

`CCC(=O)N[C@@H]1Cc2ccccc2N(OC)C1=O` registered a melting point of 98 to 99 °C.

Regarding `CN(C)CCn1c(=O)c2cc([N+](=O)[O-])ccc2c2cnc3cc4c(cc3c21)OCO4`, the melting point lay in the range of 204 to 205 °C.

Regarding `O=[N+]([O-])c1cc(-c2nc3ccccc3[nH]2)cc(O)c1O`, the melting point is more than 300 °C.

`CC(Oc1ccc2nc(NC(=O)NCCN3CCOCC3)sc2c1)c1c(Cl)ccc(F)c1Cl` (stereo not given): the melting point came out at 110 °C.

Consider `CCOC(=O)C1CCc2ccc(OC)cc2C1` (stereo not given), for which the melting point lay in the range of 125 to 127 °C.

With `CN(C)c1ccc(C=Cc2ccc(N)cc2)cc1`, the melting point came out at 168 °C.

`C#Cc1cnn2c(C(F)(F)F)cc(-c3ccc(C(F)(F)F)cc3)nc12` gave a melting point of 138 °C.

`CN(N)c1cnn(-c2ccccc2)c(=O)c1Cl`: the melting point fell in the range of 128 to 130 °C.

Consider `CN(C(=O)CCCCC1SCC2NC(=O)NC21)c1ccc(/C=C/c2c(F)cccc2F)cc1` (stereo not given), for which the melting point lay within 91 to 93 °C.

As to `CCOC1=CC2=CCC3C(CCC4(C)C3CCC4(C)C(C)=O)C2(C)CC1` (stereo not given), the melting point was 114 to 116 °C.

`CNC(=O)N1CCC(Oc2cccc(C(F)(F)F)c2)(c2ccccc2)CC1` showed a melting point of 124 to 127 °C.

In turn, `CCOC(=O)N1C(=S)NC(C)=C(C(=O)OC(C)C)C1c1cccc([N+](=O)[O-])c1` (single isomer, unassigned; (-)) returned a melting point of 120 to 122 °C.

In the case of `Cc1c(NC(=O)c2ccc(CC(=O)C3CCCO3)cc2)ccc2cc(CN3CCCC3)cnc12` (stereo not given), the melting point was found to be 102 °C.

The compound `CCCc1c(C(=O)C(C)C)c2ccc(C(N)=O)cc2n1Cc1ccccc1Br` gave a melting point of 173 to 174 °C.

Take `Nc1ccc2c(c1)C(=O)CC21CCCC1`: the melting point is 125 °C.

Take `COC(=O)c1[nH]c2c(C)ccc(C)c2c1C=O`: the melting point fell in the range of 174 to 175 °C.

In the case of `COC(=O)C(C(=O)OC)C(Cc1cc(C(F)(F)F)ccc1[N+](=O)[O-])c1ccc(OC)cc1` (stereo not given), the melting point is 110 to 112 °C.

Compound `CC(C)(C)OC(=O)N1CCC(c2cn(-c3ccc(F)cc3)c3ccc(C#N)cc23)CC1` registered a melting point of 155 °C.

The compound `O=C1c2c(Cl)cccc2-n2cnc(C#Cc3cccc(Cl)c3)c2[C@@H]2CCCN12` yielded a melting point of 207 to 209 °C.

`O=C1N(Cc2cccnn2)c2ccccc2C12COc1cc3c(cc12)CCO3` (stereo not given) returned a melting point of 81 to 82 °C.

As for `N#Cc1cnn(-c2ccc(C(F)(F)F)cc2Cl)c1Br`, the melting point turned out to be 127 °C.

`OC(=S)C=Cc1cccc2ccccc12` had a melting point of 102 to 103 °C.

The compound `COc1oc2cccc(-c3ccc(O)cc3)c2c1C(C)=O` yielded a melting point of 222 °C.

As for `C#Cc1ccc2c(c1)C=C(C(=O)O)C(C(F)(F)F)O2` (stereo not given), the melting point lay within 198 to 200 °C.

Take `CCN(C(=O)OC)c1cccc(-c2ccc3nncn3n2)c1`: the melting point is 131 to 135 °C.

`CN=C(NC#N)Nc1ccc2c(c1)CCC1CC(=O)NN=C21` (stereo not given) gave a melting point of 289 °C.

As to `COc1ccc(S(=O)(=O)N(CC(N)=O)c2ccc(F)cc2C(O)c2ccccc2Cl)cc1OC` (stereo not given), the melting point stood at 232 °C.

Regarding `Nc1ccc(S(=O)(=O)C(F)(F)C(F)Cl)cc1Cl` (stereo not given), the melting point lay in the range of 98 to 99 °C.

Regarding `CCCCCCCCCCSCCCN=C=O`, the melting point is 89 to 92 °C.

`Cc1[nH]c(=O)c2c(ccc3nc(Nc4c(Cl)cccc4Cl)n(C)c32)c1CC(=O)N1CCOCC1`: the melting point was more than 300 °C.

Compound `CCn1ncc2c(Cl)c(C(N)=O)cnc21` showed a melting point of 192 to 193 °C.

`CN1CCC(=C2c3ccc(Cl)cc3CC(=O)c3sccc32)CC1` showed a melting point of 150 to 151 °C.

With `O=C(Nc1cc(C(F)(F)F)ccc1N1CCCC1)c1ccncc1`, the melting point fell in the range of 134 to 135 °C.

Turning to `CC(=O)Nc1ccc(-c2ncc(C(=O)O)c(O)n2)cc1`, the melting point is more than 310 °C.

The compound `CCc1nc(/C=C/c2cn(-c3ccccc3)nc2OCc2ccc(OCc3nc(-c4cccc(NS(C)(=O)=O)c4)oc3C)c(OC)c2)cs1` yielded a melting point of 113 to 115 °C.

Take `CCCCCCCCCCCCCCCCCCOc1cc(OCCOCCOCCOCC)cc(C(=O)O)c1`: the melting point was in the range of 38 to 40 °C.

In turn, `CCn1c(=O)c2c(nc(/C=C/c3cc4c(cc3Br)OCO4)n2C)n(CC)c1=O` showed a melting point of 255 to 256 °C.

For the compound `O=Cc1cc2ccccc2c(-c2ccc(I)cc2)n1`, the melting point lay in the range of 243 to 245 °C.

Take `CC(=O)OCc1nc2cc3c(cc2c(=O)n1COC(=O)C(C)(C)C)C(=O)CC3`: the melting point is 144 °C.

On to `CC(=O)c1cc(NC(=O)NCCCN(CCCNC(=O)Nc2cc(C(C)=O)cc(C(C)=O)c2)CCCNC(=O)Nc2cc(C(C)=O)cc(C(C)=O)c2)cc(C(C)=O)c1`, for which the melting point was 147 to 148 °C.

In turn, `COC(=O)CC(C)N=c1sc2ccccc2s1` (stereo not given) yielded a melting point of 78 to 80 °C.

In turn, `CC1=C(C#N)S(=O)(=O)c2ccc(F)cc2N1` came in with a melting point of 261 to 263 °C.

Regarding `c1ccc(-c2cn3ccsc3n2)cc1`, the melting point lay within 143 to 144 °C.

Compound `Oc1ccc(-c2noc3ccc(O)cc23)cc1` displayed a melting point of 266 to 268 °C.

Take `CC(C(=O)CCc1ccc(Cl)cc1)n1cncn1` (stereo not given): the melting point fell in the range of 77 to 78 °C.

As to `CCc1[nH]c2ccc(OC)cc2c1/C=C/C(=O)c1ccncc1`, the melting point is 214 to 215 °C.

For `O=C(NCc1ccccc1)c1ccnc(NC(=O)c2cccc(F)c2)c1`, the melting point was 140 to 143 °C.

`CCc1nc2c(cnn2CC)c(NC2CCOCC2)c1CNC(=O)c1cccc(C(=O)NCc2cc(Cl)cc(-c3cccc(CN4CCCNCC4)c3)c2)c1` yielded a melting point of 121 to 124 °C.

On to `CCOC(=O)c1cnc2nn(C)cc2c1NC`, for which the melting point was in the range of 178 to 180 °C.

`CSCc1c(C(=O)NN2CCCCC2)nn(-c2ccc(Cl)cc2Cl)c1-c1ccc(Cl)cc1` yielded a melting point of 183 °C.

Regarding `CSCCNC(=O)N(C)c1cnc(-c2cncc(F)c2)s1`, the melting point was in the range of 117 to 119 °C.

In turn, `CC(=O)Nc1nc(CN2CCC(c3c[nH]c4ccccc34)CC2)cs1` returned a melting point of 204 to 207 °C.

Take `CCCCC(CNc1nc(C)c(O)c(C(C)C)n1)c1ccccc1` (stereo not given): the melting point lay in the range of 60 to 61 °C.

`CC(=O)c1cccc2c1Cc1ccccc1-2` registered a melting point of 84 to 87 °C.

Turning to `COc1cc(C(=O)c2cccs2)cc(OC)c1OC`, the melting point worked out at 83 °C.

Compound `COc1ccc2c(c1)CCC1C2CCC2(C)C(=O)CC(C)(C)C12` (stereo not given) yielded a melting point of 145 to 148 °C.

`COc1cccn2c(=O)c3c(nc12)C(=Cc1ccccc1)CC3` yielded a melting point of 212 to 214 °C.

What is called melting point is the temperature of the solid-liquid transition.

Source of the values: a melting point compilation (Tetko et al.; mined from patent text by program, amines drawn as free bases though some values may be those of a salt).
